Data on one molecule can be found in ChEMBL document CHEMBL5352440, “Promising antimalarials targeting apicoplast DNA polymerase from Plasmodium falciparum” (Eur J Med Chem, 2022).

For orientation: inhibition means the share of the control response that was lost under treatment. As usually defined, the EC50 is the midpoint of the concentration-response curve.

Activity calls are given as the source filed them. The rule behind the calls is not given here.

Assay [1] deals with DNA polymerase I (Escherichia coli) (UniProt P00582). The assay is described as follows: Inhibition of Escherichia coli DNA polymerase I.
The target in assay [2] is T1, DNA-directed DNA polymerase (Enterobacteria phage T4) (UniProt P04415).
T1 sequence (whole entry): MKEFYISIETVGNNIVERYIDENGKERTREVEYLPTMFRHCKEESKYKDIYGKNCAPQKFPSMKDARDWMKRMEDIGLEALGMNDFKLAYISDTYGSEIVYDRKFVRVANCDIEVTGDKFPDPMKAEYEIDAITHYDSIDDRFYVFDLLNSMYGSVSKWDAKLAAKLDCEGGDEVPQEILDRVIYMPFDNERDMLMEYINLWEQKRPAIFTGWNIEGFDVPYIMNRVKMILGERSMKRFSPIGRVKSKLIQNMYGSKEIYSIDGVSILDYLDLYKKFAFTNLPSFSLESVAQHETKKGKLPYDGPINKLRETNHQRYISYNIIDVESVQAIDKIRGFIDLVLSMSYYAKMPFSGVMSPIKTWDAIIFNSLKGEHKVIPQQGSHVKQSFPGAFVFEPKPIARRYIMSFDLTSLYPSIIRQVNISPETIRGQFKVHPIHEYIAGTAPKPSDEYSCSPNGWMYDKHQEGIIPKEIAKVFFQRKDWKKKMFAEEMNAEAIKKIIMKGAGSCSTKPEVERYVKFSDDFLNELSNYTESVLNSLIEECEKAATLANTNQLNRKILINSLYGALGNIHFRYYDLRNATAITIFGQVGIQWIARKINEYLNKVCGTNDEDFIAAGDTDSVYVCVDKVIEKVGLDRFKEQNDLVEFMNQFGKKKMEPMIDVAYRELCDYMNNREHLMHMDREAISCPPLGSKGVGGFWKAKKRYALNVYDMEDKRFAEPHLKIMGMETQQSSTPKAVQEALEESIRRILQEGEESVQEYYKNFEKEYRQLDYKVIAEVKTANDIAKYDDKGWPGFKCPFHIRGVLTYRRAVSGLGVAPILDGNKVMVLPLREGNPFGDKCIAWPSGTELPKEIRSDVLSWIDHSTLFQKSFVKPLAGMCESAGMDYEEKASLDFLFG
Put plainly: Inhibition of Enterobacteria T4 phage DNA polymerase.

Assay [3] relates to Plasmodium falciparum. The assay is described as follows: Antiparasitic activity against Plasmodium falciparum NF54 with attB plasmid infected in red blood cells assessed as reduction in parasitemia incubated for 72 hrs. To be noted: NF54, Erythrocyte. The class given is functional, organism-based, Red blood cell.
For assay [4], the system named is Plasmodium falciparum. The assay is described as follows: Inhibition of plasmodium falciparum apicoplast DNA polymerase exonuclease activity using blunt-ended double stranded oligonucleotide with 2-aminopurine at position 1 on 3' end as substrate assessed as exonuclease specific activity at 100 uM (reference value: 2.2 +/- 0.09%).
The test system of assay [5] is Plasmodium falciparum. Put plainly: Inhibition of plasmodium falciparum apicoplast DNA polymerase exonuclease activity using blunt-ended double stranded oligonucleotide with 2-aminopurine at position 1 on 3' end as substrate assessed as reduction in exonuclease proofreading activity at 3'-5' direction at 100 uM relative to control.
In assay [6] the test system is Plasmodium falciparum. Put plainly: Non-competitive inhibition of Plasmodium falciparum apicoplast DNA polymerase assessed as inhibition constant for higher affinity site in presence of various concentrations of dNTPs by molecular beacon assay.
The subject of assay [7] is Plasmodium falciparum. The assay is described as follows: Non-competitive inhibition of Plasmodium falciparum apicoplast DNA polymerase assessed as inhibition constant for lower affinity site in presence of various concentrations of dNTPs by molecular beacon assay.
The subject of assay [8] is Plasmodium falciparum. Put plainly: Non-competitive inhibition of exonuclease deficient Plasmodium falciparum apicoplast DNA polymerase harboring wild type W512 residue assessed as inhibition constant for higher affinity site in presence of dNTPs.
Assay [9] deals with Plasmodium falciparum. Put plainly: Non-competitive inhibition of exonuclease deficient Plasmodium falciparum apicoplast DNA polymerase harboring wild type W512 residue assessed as inhibition constant for lower affinity site in presence of dNTPs.
The subject of assay [10] is Plasmodium falciparum. Put plainly: Non-competitive inhibition of exonuclease deficient Plasmodium falciparum apicoplast DNA polymerase W512A mutant assessed as inhibition constant for higher affinity site in presence of dNTPs.
Assay [11] concerns Plasmodium falciparum. Put plainly: Non-competitive inhibition of exonuclease deficient Plasmodium falciparum apicoplast DNA polymerase W512A mutant assessed as inhibition constant for lower affinity site in presence of dNTPs.

Chain of DNA polymerase I (Escherichia coli) (P00582 whole entry): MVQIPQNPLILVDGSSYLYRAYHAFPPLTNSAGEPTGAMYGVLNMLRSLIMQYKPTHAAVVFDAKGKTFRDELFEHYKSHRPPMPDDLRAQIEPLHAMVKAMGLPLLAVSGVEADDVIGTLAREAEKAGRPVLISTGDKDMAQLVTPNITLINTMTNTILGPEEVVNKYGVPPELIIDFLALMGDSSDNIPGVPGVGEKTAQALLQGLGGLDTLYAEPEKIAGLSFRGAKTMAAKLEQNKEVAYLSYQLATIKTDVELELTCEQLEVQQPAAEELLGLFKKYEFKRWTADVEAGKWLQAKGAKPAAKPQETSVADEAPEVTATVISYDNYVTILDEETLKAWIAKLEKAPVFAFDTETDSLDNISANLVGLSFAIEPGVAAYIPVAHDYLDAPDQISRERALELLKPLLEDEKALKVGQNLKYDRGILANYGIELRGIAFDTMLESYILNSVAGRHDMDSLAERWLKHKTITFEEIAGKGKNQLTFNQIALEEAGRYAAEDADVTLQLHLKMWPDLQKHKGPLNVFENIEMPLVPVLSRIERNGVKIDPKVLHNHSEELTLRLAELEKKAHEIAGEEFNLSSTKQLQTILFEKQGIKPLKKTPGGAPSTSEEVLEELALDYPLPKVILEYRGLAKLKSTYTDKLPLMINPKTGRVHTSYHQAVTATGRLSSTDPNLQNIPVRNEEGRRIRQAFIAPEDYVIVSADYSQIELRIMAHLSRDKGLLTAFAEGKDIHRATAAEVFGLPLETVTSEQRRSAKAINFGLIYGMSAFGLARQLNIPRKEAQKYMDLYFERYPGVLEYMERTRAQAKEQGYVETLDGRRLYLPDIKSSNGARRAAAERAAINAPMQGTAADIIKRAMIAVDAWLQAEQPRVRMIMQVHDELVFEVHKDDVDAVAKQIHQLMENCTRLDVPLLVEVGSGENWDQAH

For the molecule `CC(C)(C)c1ccc(NC(=O)Nc2c3c(nn2-c2cccc(Cl)c2)CSC3)cc1`, the inhibition result in assay [1] and in assay [2] was “inactive” throughout. Also, the EC50 in the assay with Plasmodium falciparum [3] was found to be 1300 nM. The Activity in the assay on Plasmodium falciparum [4] came to 2.6 U. Moreover, the inhibition in the assay with Plasmodium falciparum [5] is less than 50%. In addition, the KiH in the assay on Plasmodium falciparum [6] amounted to 2.73 µM; with Plasmodium falciparum [8], 2.73 µM; with Plasmodium falciparum [10], 4.65 µM. The results for the KiL with Plasmodium falciparum [7], in the assay with Plasmodium falciparum [9] and with Plasmodium falciparum [11] were 12.2 µM, 12.2 µM and 6.8 µM, respectively.
